How the values were obtained:
AII receptor = assay: Ligand-receptor binding assay, displacement of [125I]AII from rat adrenal cortex particulate fraction; conditions: 0.05 nM [125I]AII, 1 h incubation, read-out: Angiotensin II Receptor Binding IC50
Protocol: Angiotensin-II (AII) produces numerous biological responses (e.g. vasoconstriction) through stimulation of its receptors on cell membranes. […] After a 1 h incubation the reaction was terminated by addition of cold assay buffer. The bound and free radioactivity were rapidly separated through glass-fiber filters, and the trapped radioactivity was quantitated by scintillation counting.

Renal Hypertensive Rats = assay: Antihypertensive effect in awake renal hypertensive rats (ligation of left renal artery); assay type: in vivo, rat; conditions: for ED30: Rattus norvegicus, oral, read-out: Oral Antihypertensive Effects in Renal Hypertensive Rats ED30
Description: This procedure increases blood pressure by increasing renin production with consequent elevation of AII levels. […] Arterial blood pressure is continuously measured directly through a carotid artery cannula and recorded using a pressure transducer and a polygraph. Blood pressure levels after treatment are compared to pretreatment levels to determine the antihypertensive effects of the compounds.

Compound	IC50 (AII receptor)	ED30 (Renal Hypertensive Rats)	Oral Antihypertensive Effects in Renal Hypertensive Rats ED30 (Renal Hypertensive Rats)
CCCc1nc(CC)c(C(=O)OCN(C)C)n1Cc1ccc(-c2ccccc2-c2nnn[nH]2)cc1 [Example 2, (N,N-Dimethylamino)methyl 4-ethyl-2-propyl-1-[[2'-(tetrazol-5-yl)biphenyl-4-yl]methyl]imidazole-5-carboxylate]	100 nM		
CCCc1nc(CC)c(C(=O)OCOC(=O)C(C)(C)C)n1Cc1ccc(-c2ccccc2-c2nnn[nH]2)cc1 [Example 5, Trimethylacetoxymethyl 4-ethyl-2-propyl-1-[[2'-(tetrazol-5-yl)biphenyl-4-yl]methyl]imidazole-5-carboxylate]	2 nM	0.03 mg/kg	
CCCc1nc(CC)c(C(=O)OCOC(=O)OC)n1Cc1ccc(-c2ccccc2-c2nn[nH]n2)cc1 [Example 7]	3 nM		
CCCc1nc(CC)c(C(=O)OCOC(=O)OC(C)(C)C)n1Cc1ccc(-c2ccccc2-c2nnn[nH]2)cc1 [Example 9, t-Butoxycarbonyloxymethyl 4-ethyl-2-propyl-1-[[2'-(tetrazol-5-yl)biphenyl-4-yl]methyl]imidazole-5-carboxylate]	6 nM	0.02 mg/kg	
CCCc1nc(CC)c(C(=O)OC(C)OC(=O)OC)n1Cc1ccc(-c2ccccc2-c2nn[nH]n2)cc1 (stereo not drawn) [Example 11]	4 nM	0.02 mg/kg	
CCCc1nc(CC)c(C(=O)OC(C)OC(=O)OC(C)(C)C)n1Cc1ccc(-c2ccccc2-c2nn[nH]n2)cc1 (stereo not drawn) [Example 12]	5 nM	0.3 mg/kg	
CCCc1nc(CC)c(C(=O)OCc2oc(=O)oc2C)n1Cc1ccc(-c2ccccc2-c2nn[nH]n2)cc1 [Example 13, 1,3-Dioxa-5-methyl-cyclopenten-2-one-4-ylmethyl 4-ethyl-2-propyl-1-[[2'-(tetrazol-5-yl)biphenyl-4-yl]methyl]imidazole-5-carboxylate]	3 nM	0.1 mg/kg	
CCCc1nc(CC)c(C(=O)OCc2oc(=O)oc2C(C)(C)C)n1Cc1ccc(-c2ccccc2-c2nn[nH]n2)cc1 [Example 14, (5-(1.1-Dimethylethyl)-1.3-dioxa-cyclopenten-2-one-4-yl)methyl 4-ethyl-2-propyl-1-[[2'-(tetrazol-5-yl)biphenyl-4-yl)methyl]imidazole-5-carboxylate]	3 nM	0.3 mg/kg	
CCCc1nc(CC)c(C(=O)OCc2oc(=O)oc2-c2ccccc2)n1Cc1ccc(-c2ccccc2-c2nn[nH]n2)cc1 [Example 15]	6 nM	0.3 mg/kg	
Methoxydimethylacetoxymethyl 4-ethyl-2-propyl-1-[[2'-(tetrazol-5-yl)biphenyl-4-yl]methyl]imidazole-5-carboxylate [Example 8]			0.03 mg/kg
Trimethylacetoxymethyl 4-ethyl-2-propyl-1-[[2'-(N-trimethylacetoxymethyl(tetrazol-5-yl))biphenyl- 4-yl]methyl]imidazole-5-carboxylate [Example 6]	20 nM		

Reference: patent US5310929A, “Prodrugs of imidazole carboxylic acids as angiotensin II receptor antagonists” (E. I. Du Pont de Nemours and Company, priority 1992, dated 1994)
